pIC50, pKd: −log10 of the molar value.
How the values were obtained:
[1] = biological target: kinase panel containing either 359 or 386 distinct kinases; assay: Competition binding assay, selectivity score (S10) against a panel of kinases; conditions: compounds at 10 μM; fraction of kinases with percent of control less than 10
Method: Competition binding assays used herein were developed, validated and performed as described in Fabian et al., Nature Biotechnology 2005, 23, 329-336. Kinases were produced as fusions to T7 phage (See, Fabian et al. or WO04/015142) or alternatively, the kinases were expressed in HEK-293 cells and subsequently tagged with DNA for PCR detection (See, WO08/005,310). […] The liganded beads were blocked with excess biotin and washed with blocking buffer (SeaBlock (Pierce), 1% BSA, 0.05% Tween 20, 1 mM DTT) to remove unbound ligand and to reduce non-specific binding. […] Test compounds were prepared as 100× stocks in DMSO and diluted into the aqueous environment. Kds were determined using an eleven point threefold serial dilutions. DMSO or control compounds were was added to control assays lacking a test compound. Primary screen assays were performed in polypropylene 384-well plates in a final volume of 20-40 μL, while Kd determinations were performed in polystyrene 96-well plates in a final volume of […]. […] The kinase concentration in the eluates was measured by quantitative PCR.
A selectivity score (S10) is a quantitative measure of selectivity of a compound against a panel of kinases. An S10 was calculated for a compound by dividing the number of kinases found to have a percent of control (DMSO) less than 10 by the total number of distinct kinases tested (excluding mutant variants). Percent of control (POC) is calculated by subtracting the signal of the control compound
(POC=0) from the signal of the test compound and dividing the outcome by the signal of DMSO (POC=100) minus the signal of the control compound. For the compounds disclosed herein, S10 scores were obtained by testing the compounds at 10 μM concentration in a kinase panel containing either 359 or 386 distinct kinases.

[2] = system: M-NFS-60 cells; assay: M-NFS-60 cell proliferation assay; type: cell-based, mouse; conditions: Mus musculus; 72 hours incubation, Alamar Blue, M-CSF-dependent cells; read-out: CSF1R Cell Proliferation (M-NFS-60) IC50
Method: In certain embodiments, the compounds disclosed herein are tested in an M-NFS-60 cell proliferation assay to determine their cellular potency against CSF-1R. M-NFS-60s are mouse monocytic cells that depend on the binding of the ligand M-CSF to its receptor, CSF-1R, to proliferate Inhibition of CSF-1R kinase activity will cause reduced growth and/or cell death. This assay assesses the potency of compounds as CSF-1R inhibitors by measuring the reduction of Alamar Blue reagent by viable cells. An exemplary assay is described in the Examples section.
The compounds disclosed herein were tested in an M-NFS-60 cell proliferation assay to determine their cellular potency against CSF1R. M-NFS-60s are mouse monocytic cells that depend on the binding of the ligand M-CSF to its receptor, CSF1R, to proliferate Inhibition of CSF1R kinase activity will cause reduced growth and/or cell death. This assay assesses the potency of compounds as CSF1R inhibitors by measuring the reduction of Alamar Blue reagent by viable cells.
On day one of the experiment, M-NFS-60 cells were maintained in RPMI complete medium (Omega Scientific) plus 10% FBS supplemented with 20 ng/mL of M-CSF (R&D Systems). 96-well TC-treated, flat bottom plates were seeded at 10,000 cell/well at a volume of 100 μL per well. The cells were cultured overnight at 37° C. under 5% CO2.
On day two, compounds were added to the cells at 9 different concentrations, with half-log intervals alongside a control reference compound serving as a positive control. Final DMSO concentration was kept at 0.5% for a final volume of 200 μL. The compounds were allowed to incubate with the cells for 72 hours at 37° C. under 5% CO2.
On day five of the experiment, 40 μl of Alamar Blue reagent was added to each well and allowed to incubate for 3 hours. Alamar Blue fluorescence was read using SoftMax Pro software at 560 nm (excitation) and 590 nm (emission). IC50s were generated as an average of duplicates and represents the concentration of test compound that achieves 50% inhibition of cellular proliferation compared to control.

[3] = biological target: T1, CSF1R (human) (Homo sapiens, UniProt P07333); assay: Competition binding assay, CSF1R (human) Kd
T1 construct: made in house; host or cells: T7 phage display or HEK-293 cells (alternatives, not resolved per kinase)
T1 sequence (P07333 20-972): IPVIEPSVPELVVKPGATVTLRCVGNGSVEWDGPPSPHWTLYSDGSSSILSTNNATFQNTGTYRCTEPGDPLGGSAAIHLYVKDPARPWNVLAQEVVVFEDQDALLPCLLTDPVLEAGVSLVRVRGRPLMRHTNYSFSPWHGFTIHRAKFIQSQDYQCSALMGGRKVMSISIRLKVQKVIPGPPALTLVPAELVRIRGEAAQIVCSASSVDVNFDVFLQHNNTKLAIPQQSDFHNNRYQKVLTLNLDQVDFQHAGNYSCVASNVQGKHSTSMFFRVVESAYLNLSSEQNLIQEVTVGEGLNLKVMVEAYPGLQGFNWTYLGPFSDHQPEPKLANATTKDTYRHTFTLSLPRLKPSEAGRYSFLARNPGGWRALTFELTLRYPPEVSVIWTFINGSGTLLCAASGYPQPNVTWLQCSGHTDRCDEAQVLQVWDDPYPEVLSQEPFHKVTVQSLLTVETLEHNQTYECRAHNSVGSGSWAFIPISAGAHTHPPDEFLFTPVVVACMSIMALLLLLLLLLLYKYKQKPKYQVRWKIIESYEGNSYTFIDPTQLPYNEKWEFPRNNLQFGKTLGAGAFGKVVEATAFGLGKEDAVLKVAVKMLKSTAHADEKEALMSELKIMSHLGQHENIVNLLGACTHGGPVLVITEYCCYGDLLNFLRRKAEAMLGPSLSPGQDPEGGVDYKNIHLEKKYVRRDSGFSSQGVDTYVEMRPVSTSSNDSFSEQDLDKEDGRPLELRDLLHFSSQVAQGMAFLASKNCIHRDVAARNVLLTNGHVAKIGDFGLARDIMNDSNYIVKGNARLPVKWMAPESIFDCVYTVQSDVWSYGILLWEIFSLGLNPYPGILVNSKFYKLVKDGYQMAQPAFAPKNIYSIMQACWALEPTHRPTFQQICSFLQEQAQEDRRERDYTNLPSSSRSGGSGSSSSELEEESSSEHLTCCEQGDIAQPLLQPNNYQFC
Method: (§1) The liganded beads were blocked with excess biotin and washed with blocking buffer (SeaBlock (Pierce), 1% BSA, 0.05% Tween 20, 1 mM DTT) to remove unbound ligand and to reduce non-specific binding. […] Test compounds were prepared as 100× stocks in DMSO and diluted into the aqueous environment. Kds were determined using an eleven point threefold serial dilutions. DMSO or control compounds were was added to control assays lacking a test compound. […] The kinase concentration in the eluates was measured by quantitative PCR.

[4] = biological target: T2, CSF1R (mouse) (Mus musculus, UniProt P09581); assay: Competition binding assay, CSF1R (mouse) Kd
T2 construct: made in house; host or cells: T7 phage display or HEK-293 cells (alternatives, not resolved per kinase)
T2 sequence (P09581 20-977): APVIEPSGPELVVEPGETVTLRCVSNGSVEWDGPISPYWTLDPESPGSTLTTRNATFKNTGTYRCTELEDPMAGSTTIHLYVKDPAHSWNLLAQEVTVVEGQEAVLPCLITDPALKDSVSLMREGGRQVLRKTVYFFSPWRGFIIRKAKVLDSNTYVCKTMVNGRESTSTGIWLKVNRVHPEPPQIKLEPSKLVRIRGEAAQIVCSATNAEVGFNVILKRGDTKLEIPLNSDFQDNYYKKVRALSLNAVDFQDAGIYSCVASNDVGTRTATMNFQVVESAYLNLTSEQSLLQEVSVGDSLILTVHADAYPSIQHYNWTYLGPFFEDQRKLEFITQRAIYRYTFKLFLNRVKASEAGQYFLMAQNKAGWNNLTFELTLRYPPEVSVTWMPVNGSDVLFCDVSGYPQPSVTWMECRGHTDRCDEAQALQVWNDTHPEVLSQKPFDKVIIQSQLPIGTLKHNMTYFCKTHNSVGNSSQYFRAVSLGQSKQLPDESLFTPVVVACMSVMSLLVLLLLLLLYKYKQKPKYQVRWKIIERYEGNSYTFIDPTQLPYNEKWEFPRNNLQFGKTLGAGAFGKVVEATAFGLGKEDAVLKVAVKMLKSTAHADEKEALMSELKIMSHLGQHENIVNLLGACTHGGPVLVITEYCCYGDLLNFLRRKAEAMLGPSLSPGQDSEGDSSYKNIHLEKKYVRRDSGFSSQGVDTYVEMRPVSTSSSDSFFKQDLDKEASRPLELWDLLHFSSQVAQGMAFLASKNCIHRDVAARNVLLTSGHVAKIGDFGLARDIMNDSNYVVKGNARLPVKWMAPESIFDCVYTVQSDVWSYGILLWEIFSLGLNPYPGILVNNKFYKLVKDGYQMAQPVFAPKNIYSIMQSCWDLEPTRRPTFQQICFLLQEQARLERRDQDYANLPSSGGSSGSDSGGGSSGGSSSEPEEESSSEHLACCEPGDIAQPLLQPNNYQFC
Method: as §1

Row | Structure (SMILES) | Kinase Specificity (S10) [1] | pKd [3] | pKd [4] | pIC50 [2]
1 | CC(C)(C)c1cc(NC(=O)Nc2ccc(NC(=O)c3cccc(OCCN4CCOCC4)n3)cc2)no1 | A (A ≦ 0.03) | < 8.00 | < 8.00 | < 6.00
2 | CC(C)(C)OC(=O)N1CCC(Oc2ccc(C(=O)N[C@H]3CC[C@H](NC(=O)Nc4cc(C(C)(C)C)on4)CC3)nc2)CC1 | A (A ≦ 0.03) | < 8.00 | 8.00 to 8.52 | 6.00 to 6.60
3 | CC(C)(C)c1cc(NC(=O)Nc2ccc(NC(=O)c3cccc(CN)n3)cc2)no1.Cl | A (A ≦ 0.03) | < 8.00 | < 8.00 | 6.00 to 6.60
4 | CC(C)(C)c1cc(NC(=O)Nc2ccc(NC(=O)c3cccc(OC4CCNCC4)n3)cc2)no1 | B (0.03 < B ≦ 0.05) | < 8.00 | < 8.00 | < 6.00
5 | CN1CCN(c2cccc(C(=O)Nc3ccc(NC(=O)Nc4cc(C(C)(C)C)on4)cc3)n2)CC1 | B (0.03 < B ≦ 0.05) | 8.00 to 8.52 | 8.00 to 8.52 | < 6.00
6 | CN1CCC(Oc2ccnc(C(=O)Nc3ccc(NC(=O)Nc4cc(C(C)(C)C)on4)cc3)c2)CC1 | B (0.03 < B ≦ 0.05) | 8.00 to 8.52 | 8.00 to 8.52 | 6.00 to 6.60
7 | CCN1CCC(Oc2ccc(C(=O)N[C@H]3CC[C@H](NC(=O)Nc4cc(C(C)(C)C)on4)CC3)nc2)CC1 | A (A ≦ 0.03) | 8.00 to 8.52 | 8.00 to 8.52 | 6.00 to 6.60
8 | CC(C)(C)c1cc(NC(=O)Nc2ccc(NC(=O)c3ccc(OC4CN5CCC4CC5)cn3)cc2)no1 (stereo not shown) | C (C > 0.05) | > 8.52 | – | ≥ 7.00
9 | CN1C(C)(C)CC(Oc2ccc(C(=O)Nc3cccc(CNC(=O)Nc4cc(C(C)(C)C)on4)c3)nc2)CC1(C)C | C (C > 0.05) | < 8.00 | – | < 6.00
10 | CCN1CCC(Oc2ccc(C(=O)Nc3ccc(NC(=O)Nc4cc(C(C)(C)C)no4)cc3)nc2)CC1 | B (0.03 < B ≦ 0.05) | 8.00 to 8.52 | – | ≥ 7.00
11 | COc1cc(NC(=O)c2ccc(OC3CC(C)(C)N(C)C(C)(C)C3)cn2)ccc1NC(=O)Nc1cc(C(C)(C)C)on1 | A (A ≦ 0.03) | 8.00 to 8.52 | – | < 6.00
12 | CN1C(C)(C)CC(Oc2ccc(C(=O)Nc3ccc(NC(=O)Nc4cc(C(C)(C)C)nn4C)cc3)nc2)CC1(C)C | B (0.03 < B ≦ 0.05) | 8.00 to 8.52 | – | 6.60 to 7.00
13 | CCN1CC[C@@H](COc2ccc(C(=O)Nc3ccc(NC(=O)Nc4cc(C(C)(C)C)on4)cc3)nc2)C1 | C (C > 0.05) | < 8.00 | – | ≥ 7.00

Continued, in another order:

Row | Kinase Specificity (S10) [1] | pKd [3] | pKd [4] | Structure (SMILES) | pIC50 [2]
14 | A (A ≦ 0.03) | 8.00 to 8.52 | 8.00 to 8.52 | CCN(CC)Cc1ccnc(C(=O)Nc2ccc(NC(=O)Nc3cc(C(C)(C)C)on3)cc2)c1 | 6.00 to 6.60
15 | C (C > 0.05) | > 8.52 | > 8.52 | CN1CCN(c2ccc(C(=O)Nc3ccc(NC(=O)Nc4cc(C(C)(C)C)on4)cc3)nc2)CC1 | ≥ 7.00
16 | B (0.03 < B ≦ 0.05) | 8.00 to 8.52 | 8.00 to 8.52 | CN1CCN(c2ccnc(C(=O)Nc3ccc(NC(=O)Nc4cc(C(C)(C)C)on4)cc3)c2)CC1 | 6.60 to 7.00
17 | A (A ≦ 0.03) | > 8.52 | > 8.52 | CC(CF)(CF)c1cc(NC(=O)Nc2ccc(NC(=O)c3ccc(OC4CCN(CC(F)(F)F)CC4)cn3)cc2)no1 | 6.60 to 7.00
18 | A (A ≦ 0.03) | 8.00 to 8.52 | 8.00 to 8.52 | CC(C)(C)c1cc(NC(=O)Nc2ccc(NC(=O)c3ccc(CN4CCOCC4)cn3)cc2)no1 | 6.60 to 7.00
19 | B (0.03 < B ≦ 0.05) | > 8.52 | > 8.52 | CN1CCC(Oc2ccc(C(=O)Nc3ccc(NC(=O)Nc4cc(C(C)(CF)CF)on4)cc3)nc2)CC1 | ≥ 7.00
20 | B (0.03 < B ≦ 0.05) | > 8.52 | – | CC(C)N1CCC(Oc2ccc(C(=O)Nc3ccc(NC(=O)Nc4cc(C(C)(C)C)on4)cc3)nc2)C1 (stereo not shown) | ≥ 7.00
21 | C (C > 0.05) | > 8.52 | – | CC(C)N1CC[C@@H](Oc2ccc(C(=O)Nc3ccc(NC(=O)Nc4cc(C(C)(C)C)on4)cc3)nc2)C1 | ≥ 7.00
22 | C (C > 0.05) | > 8.52 | – | CC(C)(C)c1cc(NC(=O)Nc2ccc(NC(=O)c3ccc(OC4CCN(CCS(C)(=O)=O)C4)cn3)cc2)no1 (stereo not shown) | ≥ 7.00
23 | A (A ≦ 0.03) | > 8.52 | – | CN1C(C)(C)CC(Oc2ccc(C(=O)Nc3ccc(NC(=O)Nc4cc(C(C)(C)F)no4)cc3)nc2)CC1(C)C | ≥ 7.00
24 | C (C > 0.05) | > 8.52 | – | CC(C)N1CCC(Oc2ccc(C(=O)Nc3ccc(N(C)C(=O)Nc4cc(C(C)(C)C)on4)cc3)nc2)C1 (stereo not shown) | 6.60 to 7.00
25 | C (C > 0.05) | > 8.52 | – | CC(C)N1CCC(Oc2ccc(C(=O)Nc3ccc(NC(=O)Nc4cc(C(C)(C)C(F)(F)F)on4)cc3)nc2)CC1 | ≥ 7.00
26 | C (C > 0.05) | > 8.52 | – | CC(C)(C)c1cc(NC(=O)Nc2ccc(NC(=O)c3ccc(OC4CN(C5COC5)C4)cn3)cc2)no1 | ≥ 7.00

Reference: patent US9296722B2, “Azolyl urea compounds and methods of use thereof” (Ambit Biosciences Corporation, priority 2010, dated 2016)
